According to patent publication US7320980B2, “Substituted pyrido(1,2-a)pyrimidines and their use as NOS inhibitors” (Gruenenthal GmbH, priority 2003, dated 2008):
Where a name gives a salt, the structure may show the parent alone.

Tested on: not given
Assay: not given
Details: not given

SMILES | melting point [°C]
CC1=CC2=NCC(C(=O)c3ccc(Br)cc3)CN2C=C1 (stereo not drawn) (as salt: perchlorate) [Example 3, 3-(4′-Bromobenzoyl)-3,4-dihydro-2H-8-methylpyrido[1,2-a]pyrimidinium perchlorate] | 158 to 161
CC1=CC2=NCC(C(=O)c3ccccc3)CN2C=C1 (stereo not drawn) (as salt: perchlorate) [Example 5, 3-Benzoyl-3,4-dihydro-2H-8-methylpyrido[1,2-a]pyrimidinium perchlorate] | > 290
CC1=CC2=NCC(C(=O)c3ccc(-c4ccccc4)cc3)CN2C=C1 (stereo not drawn) (as salt: perchlorate) [Example 8, 3-(4′-Biphenylcarbonyl)-3,4-dihydro-2H-8-methylpyrido[1,2-a]pyrimidinium perchlorate] | 111

Continued, values first:

melting point [°C] | SMILES
78 | CC1=CC2=NCC(C(=O)c3ccccc3)CN2C(C)=C1 (stereo not drawn) (as salt: perchlorate) [Example 6, 3-Benzoyl-3,4-dihydro-2H-6,8-dimethylpyrido[1,2-a]pyrimidinium perchlorate]
123 to 125 | CC1=CC2=NCC(C(=O)c3ccc(Cl)cc3)CN2C=C1 (stereo not drawn) (as salt: perchlorate) [Example 7, 3-(4′-Chlorobenzoyl)-3,4-dihydro-2H-8-methylpyrido[1,2-a]pyrimidinium perchlorate]

Molecular target: T1, NO synthase (Rattus norvegicus, UniProt P29476)
T1 construct: the supernatant was then decanted off and frozen in portions at −80° C., discarding the precipitate; from tissue; host or cells: rat cerebellum, 20,000 g supernatant of homogenate
Assay: NOS / HTS-NOS assay (radioactive arginine conversion, rat cerebellum enzyme preparation)
Format: biochemical
Details: rat cerebellum supernatant enzyme, [3H]-arginine substrate, 25° C.; read-out: NOS Arg IC50
Description: This assay makes it possible to determine the percentage inhibition of NO synthase (hereinafter referred to as the enzyme) by a compound of the general formula II used according to the invention, optionally in the form of one of the pure stereoisomers thereof, in particular enantiomers or diastereomers, the racemates thereof or in the form of a mixture of stereoisomers, in particular the enantiomers or diastereomers, in any desired mixing ratio, or in each case in the form of the free base thereof or in the form of the physiologically acceptable salt thereof, in particular hydroperchlorate salt or in each case in the form of the solvate thereof, in particular hydrate (hereinafter referred to as the active ingredient), by measuring enzyme activity on exposure to the compound. The enzyme is here mixed under suitable conditions together with radioactively labelled arginine and the particular active ingredient. After termination of the NO formation reaction at a predetermined time, the quantity of unconverted arginine is directly or indirectly determined.
This assay may be carried out at follows: • (a) Incubation of the enzyme with labelled arginine as the substrate in a reaction vessel, • (b) Separation of the labelled arginine from the labelled citrulline optionally arising as a product of the enzymatic reaction at a time at which the concentration of citrulline is rising, • (c) Measurement of the quantity of arginine separated in each case.
Separation is performed by means of a filter plate membrane.
Radioactive arginine is used as the substrate in this HTS-NOS assay. Depending on the type of microtitre plate (MTP), the assay volume may be selected in the range between 25 μl and 250 μl. Depending on the enzyme source used, cofactors and coenzymes are added. The batches are incubated in this microtitre plate (assay MTP) according to step (a) at room temperature and, depending on the enzyme activity used (units), lasts between 5 and 60 minutes. On completion of incubation (step (a)), the plate is placed in a cell harvester, which is equipped with an MTP which has a cation exchange membrane as a filter bottom (filter MTP). All the batches from the assay MTP are transferred into this filter MTP and suction filtered through a cation exchange filter plate, a paper filter loaded with phosphate groups. The filter MTP is then washed with buffer or water. This procedure binds the remaining substrate arginine onto the cation exchanger, while the enzymatically formed radioactive citrulline is quantitatively eluted. Once the filter MTP has been dried and scintillation liquid (Ready Protein, Beckmann Coulter GmbH, Krefeld, Germany) added, the bound arginine can be counted in the scintillation counter (Packard TRI-CARB Liquid Scintillation Analyzer 2000 CA, Packard Instrument, Meriden, Conn. 06450, USA). Low radioactivity indicates an uninhibited enzyme reaction. An inhibited enzyme reaction means that the radioactive arginine has not been converted. It may be concluded from this that there is then a high level of radioactivity on the filter.
The NOS and HTS-NOS assays were performed as described above.
Rat cerebella were used as the starting tissue. The animals were stunned and killed, the brain tissue, the cerebellum, was dissected out, 1 ml of enzyme preparation buffer (4° C.) was added per cerebellum, and the tissue was disrupted for 1 min at 6000 rpm in a Polytron homogeniser. The mixture was then centrifuged at 4° C. for 15 min at 20,000 g, and the supernatant was then decanted off and frozen in portions at −80° C., discarding the precipitate. The frozen supernatant was subsequently thawed for the assay and pipetted out onto a microtitre plate.
96-well MTPs with a well capacity of <250 μl were used.
Once pipetting was complete, a lid was placed on this MTP (assay MTP) and incubation performed at 25° C. (room temperature [RT]) for 5-60 min, depending on the quantity and activity of the enzyme used (see in this connection Table 1). […]

SMILES | IC50 [µM]
CC1=CC2=NCC(C(=O)c3ccc(F)cc3)CN2C=C1 (stereo not drawn) [Example 4, 3-(4′-Fluorobenzoyl)-3,4-dihydro-2H-8-methylpyrido[1,2-a]pyrimidinium perchlorate] | 8.5
CC1=CC2=NCC(C(=O)c3ccccc3)CN2C=C1 (stereo not drawn) [Example 5, 3-Benzoyl-3,4-dihydro-2H-8-methylpyrido[1,2-a]pyrimidinium perchlorate] | 9.1
CC1=CC2=NCC(C(=O)c3ccccc3)CN2C(C)=C1 (stereo not drawn) [Example 6, 3-Benzoyl-3,4-dihydro-2H-6,8-dimethylpyrido[1,2-a]pyrimidinium perchlorate] | 8.4
CC1=CC2=NCC(C(=O)c3ccc(Cl)cc3)CN2C=C1 (stereo not drawn) [Example 7, 3-(4′-Chlorobenzoyl)-3,4-dihydro-2H-8-methylpyrido[1,2-a]pyrimidinium perchlorate] | 6.4
CC1=CC=CC2=NCC(C(=O)c3ccc(-c4ccccc4)cc3)CN12 (stereo not drawn) [Example 9, 3-(4′-Biphenylcarbonyl)-3,4-dihydro-2H-6-methylpyrido[1,2-a]pyrimidinium perchlorate] | 7.6

The remaining lines, values ahead:

IC50 [µM] | SMILES
1.4 | CC1=CC2=NCC(C(=O)c3ccc4ccccc4c3)CN2C=C1 (stereo not drawn) [Example 1, 3-(2′-Naphthoyl)-3,4-dihydro-2H-8-methylpyrido[1,2-a]pyrimidinium perchlorate]
6.7 | CC1=CC2=NCC(C(=O)c3ccc4ccccc4c3)CN2C(C)=C1 (stereo not drawn) [Example 2, 3-(2′-Naphthoyl)-3,4-dihydro-2H-6,8-dimethylpyrido[1,2-a]pyrimidinium perchlorate]
14 | CC1=CC2=NCC(C(=O)c3ccc(Br)cc3)CN2C=C1 (stereo not drawn) [Example 3, 3-(4′-Bromobenzoyl)-3,4-dihydro-2H-8-methylpyrido[1,2-a]pyrimidinium perchlorate]
13 | CC1=CC2=NCC(C(=O)c3ccc(-c4ccccc4)cc3)CN2C=C1 (stereo not drawn) [Example 8, 3-(4′-Biphenylcarbonyl)-3,4-dihydro-2H-8-methylpyrido[1,2-a]pyrimidinium perchlorate]

Tested on: formaldehyde-induced nociception
Assay: Formaldehyde test (rat), second phase
Format: in vivo
Details: iv, male Sprague-Dawley rats, second (late) phase of formaldehyde test, pain rate change relative to control
Procedure: The investigations for determining the antinociceptive action of the compounds used according to the invention of the general formula II were carried out by the formaldehyde test on male rats (Sprague-Dawley, 150-170 g, Charles River).
In the formaldehyde test, a distinction is drawn between the first (early) phase (0-15 min after formaldehyde injection) and the second (later) phase (15-60 min after formaldehyde injection), as described in D. Dubuisson, S. G. Dennis, Pain 4, 161-174 (1977). […]
A nociceptive reaction was induced in the freely mobile test animals by a single, subcutaneous formaldehyde injection (50 μl, 5 wt. %) into the dorsal side of the rear hind paw, the reaction being classed according to one of the following behavioural parameters: lifting and holding up the affected paw (score 1), shaking or twitching (score 2), licking and biting (score 3). The differential behaviour induced by the formaldehyde injection was recorded by observing the rats in the late phase of the formaldehyde test and assigned a variable weighting in the evaluation. Normal behaviour, in which the rat places an even load on all four paws, was recorded as a score of 0. […] The nociceptive behaviour was calculated as a “pain rate” (PR). […]
The analgesic action of the compounds of the general formula II used according to the invention was determined as described above.

SMILES | ED50 [mg/kg]
CC1=CC2=NCC(C(=O)c3ccc4ccccc4c3)CN2C=C1 (stereo not drawn) [Example 1, 3-(2′-Naphthoyl)-3,4-dihydro-2H-8-methylpyrido[1,2-a]pyrimidinium perchlorate] | 7.27
